Experimental data taken from patent US20060057636A1 (priority 2002, published 2006).

Legend:
[1] = system: Balb/C mice; conditions: in vivo, sc
[2] = system: NMRI mice; conditions: mouse, in vivo
[3] = system: recombinant bovine PrP; conditions: in vivo

With CGGLGGYMLGSAMSRPLIH [PrP peptide 3] the “mean end-point titre, mouse no. 1” value [1] was 13.5000, the “mean end-point titre, mouse no. 2” value [1] was 13.500 and the “mean end-point titre, mouse no. 3” value [1] was 13.500. The “mean end-point titre, mouse no. 4” value [1] was 40.500.
CGGRESQAYYQRGAS [PrP peptide 4] was tested, and the “mean end-point titre, mouse no. 1” value [1] was 4.500, the “mean end-point titre, mouse no. 2” value [1] was 13.500 and the “mean end-point titre, mouse no. 3” value [1] was 13.500. For the same sequence, the “mean end-point titre, mouse no. 4” value [1] was 40.500 and the “titres in NMRI mice compared with Balb/C” value [2] was “the same or even higher titres”.
CGQGGTHGQWNKP [PrP peptide 1] was tested, and the “mean end-point titre, mouse no. 1” value [1] was 40.500, the “mean end-point titre, mouse no. 2” value [1] was 40.500 and the “mean end-point titre, mouse no. 3” value [1] was 40.500. The “mean end-point titre, mouse no. 4” value [1] was 40.500 and the “titres in NMRI mice compared with Balb/C” value [2] was “the same or even higher titres”.
With CGQWNKPSKPKTN [PrP peptide 2] the “mean end-point titre, mouse no. 1” value [1] was 121.500, the “mean end-point titre, mouse no. 2” value [1] was 40.500 and the “mean end-point titre, mouse no. 3” value [1] was 13.500. For the same sequence, the “mean end-point titre, mouse no. 4” value [1] was 13.500.
In the case of CGSDYEDRY [PrP peptide 5], the “mean end-point titre, mouse no. 1” value [1] is reported as 121.500, the “mean end-point titre, mouse no. 2” value [1] is reported as 40.500 and the “mean end-point titre, mouse no. 3” value [1] is reported as 40.500. For the same sequence, the “mean end-point titre, mouse no. 4” value [1] was 40.500 and the “production of high-titered, PrP-reactive antibodies” value [3] was “all groups except the peptide 5 group”.
With CTQYQRESQAYYQRG [PrP peptide 7] the “mean end-point titre, mouse no. 1” value [1] was 121.500, the “mean end-point titre, mouse no. 2” value [1] was 13.4500 and the “mean end-point titre, mouse no. 3” value [1] was 40.500. The “mean end-point titre, mouse no. 4” value [1] was 40.500.
CYYRPVDQYS [PrP peptide 6] was tested, and the “mean end-point titre, mouse no. 1” value [1] was 13.500, the “mean end-point titre, mouse no. 2” value [1] was 500 and the “mean end-point titre, mouse no. 3” value [1] was 13.500. The “mean end-point titre, mouse no. 4” value [1] was 1.500 and the “titres in NMRI mice compared with Balb/C” value [2] was “the same or even higher titres”.
